Key:
Settings in all cases: Na2HPO4-citric acid buffer, pH 5.0, 40 °C, 15 min, 5–150 mM L-Glu
GADZ1 = tested on: GADZ1
From the text: HPLC of GABA (DABS-Cl derivatisation), initial rate nonlinear fit on GADZ1

GADZ11 = tested on: GADZ11
From the text: HPLC of GABA (DABS-Cl derivatisation), initial rate nonlinear fit on GADZ11

GADZ20 = tested on: GADZ20
From the text: HPLC of GABA (DABS-Cl derivatisation), initial rate nonlinear fit on GADZ20

Km (GADZ1): 45.4 ± 8.63 mM | Km (GADZ11): 52.4 ± 5.44 mM | Km (GADZ20): 13.3 ± 1.95 mM
SMILES: N[C@@H](CCC(=O)O)C(=O)O [L-Glu]

From article PMC8336373, “Characterization of three glutamate decarboxylases from Bacillus spp. for efficient γ-aminobutyric acid production” (Microbial Cell Factories, 2021)
